Here are results for 1 compound from ChEMBL document CHEMBL1143849, “Two new dfr genes in trimethoprim-resistant integron-negative Escherichia coli isolates” (2007).

Some results are limits rather than exact numbers.

For assay [1], the system named is Escherichia coli. In words: Antimicrobial activity against Escherichia coli U93 isolate by disk diffusion test. Background: In agar diffusion tests the substance spreads into inoculated agar from a disc or well.
For assay [2], the system named is Escherichia coli. Put plainly: Antimicrobial activity against Escherichia coli U21 isolate by disk diffusion test.

In the case of `COc1cc(Cc2cnc(N)nc2N)cc(OC)c1OC` [TRIMETHOPRIM], the MIC in the assay with Escherichia coli [1] and against Escherichia coli [2] was over 32 µg/mL throughout.

By MIC is commonly meant the lowest concentration found to suppress growth. Read a high MIC as a need for much substance.
